Measured values reported in patent publication US10201623B2, “HSP90-targeted cardiac imaging and therapy” (Memorial Sloan-Kettering Cancer Center, priority 2013, dated 2019).
Each block holds one compound with its values, some of them ahead of it.

Assays:
heart muscle = experiment: 124I-PUH71 PET-CT cardiac imaging in patients; assay type: in vivo, human
Experimental: Exemplary Procedure Using ^124I-PUH71 (Compound A) The day before the administration of ^124I-PUH71, potassium iodide was administered to the subject to be imaged to minimize the amount of radioactivity in the thyroid. A dose of KI was administered before ^124I-PUH71 was injected in the vein of the arm of the subject through a catheter. A subject was typically administered one tracer-dose of ^124I-PUH71 5% ethanol and 0.9% NaCl, which is < 1/500th of the NOAEL limit derived from rodents using the cold PUH71. A dose of up to 5.5 mCi of ^124I-PUH71 were administered intravenously. ^124I-PUH71 scans were performed immediately, at 3-4 hours, 20-24 hours, and 48-72 hours after injection of the radiotracer. A 30-45 minute scanning time-period is typical for clinical PET studies. Image was acquired on a PET-CT scanner. A low-dose CT was obtained immediately prior to PET imaging; the 0-hour CT is applied to the three PET datasets rapidly-acquired during the first 30 minutes post-injection. Uptake of the PUH71 by heart muscle in 12 patients are illustrated in FIG. 2. The cardiac uptake is plotted on the y-axis, expressed in terms of the standardized uptake value (SUV), here using the SUV mean parameter. The time after injection is plotted on the x-axis, in minutes. Data shown here is from PET scans obtained 0, 10, 20 and ˜180 minutes after tracer injection. […] In 1 patient, the cardiac uptake was less distinct, but the PET imaging methodology was suboptimal compared to the other studies. […] EKG-synchronization, or ‘EKG-gating’, is standard practice in cardiac imaging, for improving the quality of heart-imaging, and it is expected that results will further improve after EKG gating is added. Without intention to be limited by theory, the bits of variation in the SUV could be due to (1) the lack of EKG-gating and (2) the lack of proper attenuation correction. […] The EKG-gating and attenuation correction techniques are standard practice in cardiac nuclear imaging art.

[1] = system: MDA-MB-468 human breast cancer tumors; experiment: micro PET of 124I-PUH71 in mice bearing MDA-MB-468 tumors; assay type: in vivo
Experimental: FIG. 4: [^124I]-PUH71 PET in mice bearing a xenografted tumor. a) Representative PET scan of [^124I]-PUH71 in MDA-MB-468 tumor-bearing mice. Location of the tumor is indicated by a red arrow. […] Representative data is shown.
We injected mice bearing MDA-MB-468 human breast cancer tumors with trace amounts of ^124I-PUH71, and imaged with the micro PET at 1, 4 and 24 hours post injection. […] The results are illustrated in FIG. 4.

[2] = stability of 124I-PUH71 in formulation; assay type: physicochemical; conditions: formulated in 5% ethanol in saline (0.9%)
Excerpt: ^124I-PUH71 was produced in formulation. The radioactive half-life is 4.2 days.

Hsp90 = experiment: saturation binding of 131I-PU-H71 in prostate cancer cell lines; conditions: several prostate cancer cell lines
[3] = patients, single iv tracer injection, PET-CT

- clearance from the bloodstream (heart muscle; human): rapid clearance
- absorption and retention in the human heart (heart muscle; human heart): rapid absorption and sustained retention
- persistence of visually-distinct cardiac uptake (heart muscle; [3]): 3 to 4 h
- time after injection at which uptake in the heart is maximized (heart muscle; [3]): less than 10 minutes
- time for which cardiac signal intensity is maintained (heart muscle; [3]): ≥ 3 h
Compound: CC(C)NCCCn1c(Sc2cc3c(cc2I)OCO3)nc2c(N)ncnc21 [Compound A]
- patients whose heart musculature demonstrated visually-distinct uptake (heart muscle; PET scans 0, 10, 20 and ~180 minutes after tracer injection, no EKG-gating): 11 out of 12

- clearance from the healthy heart ([1]; MDA-MB-468 tumor-bearing mice, heart and blood pool similar profile): rapid clearance
- uptake in the heart (PET) ([1]; MDA-MB-468 tumor-bearing mice, no cardiac disease expected): no distinct uptake
- retention in tumors ([1]; micro PET at 1, 4 and 24 hours post injection): retained in tumors even at 24 h p.i.
- route of clearance of excess radioligand ([1]; tumor-bearing mice): cleared via the liver and GI tract
- stability in formulation [2]: stable, in formulation, for several days
Compound: CC(C)NCCCn1c(Sc2cc3c(cc2[124I])OCO3)nc2c(N)ncnc21 [^124I-PUH71]

Compound: CC(C)NCCCn1c(Sc2cc3c(cc2[131I])OCO3)nc2c(N)ncnc21 [^131I-PUH71]
- selectivity of binding to Hsp90 (Hsp90): bound, selectively
- Bmax (Hsp90; saturable binding): 3 to 7 million sites, per cell
